Structures are written as SMILES. Bounds are passed on as bounds.

Experiment [1] relates to Rattus norvegicus. The experiment is described as follows: Inhibition of sorbitol accumulation in the lens in diabetic rats at peroral dose of 30 mg/kg (curative effect). The following applies: Lens of camera-type eye, route oral. Type of experiment: functional.
In experiment [2] the test system is Rattus norvegicus. Briefly: Inhibition of sorbitol accumulation in the sciatic nerve in diabetic rats at peroral dose of 30 mg/kg (curative effect). Type of experiment: functional. The following applies: route oral.
Experiment [3] concerns the target Aldo-keto reductase family 1 member B1 (Sus scrofa, UniProt P80276). Briefly: Inhibitory concentration against porcine lens aldose reductase (AR) with DL-glyceraldehyde as the substrate.
Experiment [4] deals with Rattus norvegicus. The experiment is described as follows: Percent inhibition of sorbitol accumulation in the sciatic nerve of streptozotocin (STZ)- induced diabetic rats at peroral dose of 30 mg/kg (preventive effect). The experiment is classed as functional. The following applies: route oral.
For experiment [5], the system named is Rattus norvegicus. Briefly: Percent inhibition of sorbitol accumulation in the lens of streptozotocin (STZ)-induced diabetic rats at peroral dose of 30 mg/kg (preventive effect). The experiment is classed as functional. The following applies: Lens of camera-type eye, route oral.
Experiment [6] deals with Aldo-keto reductase family 1 member B1 (Sus scrofa) (UniProt P80276). The experiment is described as follows: In vitro percent inhibition of porcine lens aldose reductase (AR) at 10e -7 M with DL-glyceraldehyde as the substrate.
Experiment [7] has as its system Rattus norvegicus. Briefly: Percent inhibition of sorbitol accumulation in the sciatic nerve of streptozotocin (STZ)- induced diabetic rats at peroral dose of 30 mg/kg (curative effect). Type of experiment: functional. The following applies: route oral.
Experiment [8] deals with Rattus norvegicus. The experiment is described as follows: Percent inhibition of sorbitol accumulation in the lens of streptozotocin (STZ)-induced diabetic rats at peroral dose of 30 mg/kg (curative effect). Type of experiment: functional. The following applies: Lens of camera-type eye, route oral.

What is called ED50 is the midpoint of the dose-response relation. Lower therefore signals greater potency. For orientation: IC50 means the concentration that gives 50% inhibition. Lower therefore signals greater potency. `O=C(O)Cc1cc(Cl)cc(Cc2nc3c(F)c(F)cc(F)c3s2)c1`: the values for the ED50 in the experiment on Rattus norvegicus [1] and in the experiment with Rattus norvegicus [2] were 7.8 mg/kg and 0.46 mg/kg, respectively. Besides, in experiment [3], half-maximal inhibition (IC50) was put at 0.007 µM.
Consider `O=C(O)Cc1cccc(Cc2nc3c(F)c(F)cc(F)c3s2)c1Cl`, for which the median effective dose (ED50) is 0.71 mg/kg in the experiment with Rattus norvegicus [1] and 0.12 mg/kg in the experiment on Rattus norvegicus [2]. In experiment [3], this compound had an IC50 of 0.0093 µM.
As usually defined, the inhibition in vivo is the drop in the measured response relative to a control, in per cent. As for `O=C(O)CN(CCc1ccccc1)C(=O)CCc1nc2c(F)c(F)cc(F)c2s1`, the inhibition in vivo at 30 mg/kg in the experiment with Rattus norvegicus [4] is 65%; with Rattus norvegicus [5], -2%.
The inhibition is how much of the control response was suppressed. Compound `O=C(O)CCCCCc1nc2c(F)c(F)cc(F)c2s1` registered an IC50 in experiment [3] of 0.05 µM. The same compound yielded an inhibition in experiment [6] of 71%.
As to `O=C(O)CC1Sc2ccccc2N(Cc2nc3c(F)c(F)cc(F)c3s2)C1=O` (stereo not drawn), the ED50 in the experiment on Rattus norvegicus [1] is > 10 mg/kg; with Rattus norvegicus [2], 1.8 mg/kg.
In experiment [6], `O=C(O)CCCCCCc1nc2c(F)c(F)cc(F)c2s1` showed an inhibition of 11%.
As to `O=C(O)Cc1cc(Cc2nc3c(F)c(F)cc(F)c3s2)cc(C(=O)O)c1`, the ED50 with Rattus norvegicus [1] and in the experiment on Rattus norvegicus [2] was > 10 mg/kg throughout.
In the case of `O=C(O)Cn1c(=O)n(Cc2ccc(Br)cc2F)c(=O)c2ccc(Cl)cc21` [ZENARESTAT], the inhibition in vivo at 30 mg/kg in the experiment with Rattus norvegicus [7] is 76%; with Rattus norvegicus [4], 89%; in the experiment on Rattus norvegicus [8], 21%; with Rattus norvegicus [5] it was 30%. Moreover, the midpoint of inhibition in experiment [3], the IC50, lay at 0.012 µM.
Take `Cc1cc(CC(=O)O)cc(Cc2nc3c(F)c(F)cc(F)c3s2)c1`: the ED50 in the experiment with Rattus norvegicus [1] turned out to be 1.6 mg/kg; in the experiment with Rattus norvegicus [2], 0.25 mg/kg.
In the same order, the values of `O=C(O)Cc1cc(Br)cc(Cc2nc3c(F)c(F)cc(F)c3s2)c1` are 9.8 mg/kg and 0.68 mg/kg.
On to `CN(CC(=O)O)C(=S)CCc1nc2c(F)c(F)cc(F)c2s1`, for which the inhibition in vivo at 30 mg/kg in the experiment with Rattus norvegicus [4] came to 48%; with Rattus norvegicus [5], 58%.
Regarding `O=C(O)Cc1cc(I)cc(Cc2nc3c(F)c(F)cc(F)c3s2)c1`, the ED50 with Rattus norvegicus [1] and in the experiment with Rattus norvegicus [2] was > 10 mg/kg throughout. In addition, the IC50 in experiment [3] was found to be 0.011 µM.
As to `CN(C)c1cc(CC(=O)O)cc(Cc2nc3c(F)c(F)cc(F)c3s2)c1.Cl`, the values for the 50% effective dose (ED50) in the experiment on Rattus norvegicus [1] and in the experiment on Rattus norvegicus [2] were > 10 mg/kg and 0.53 mg/kg, respectively. Further, the IC50 in experiment [3] turned out to be 0.012 µM.
For `O=C(O)CN(C(=O)CCc1nc2c(F)c(F)cc(F)c2s1)c1ccccc1`, the values for the inhibition in vivo at 30 mg/kg with Rattus norvegicus [4] and with Rattus norvegicus [5] were 54% and 80%, respectively.
As for `COc1ccc2c(C(=S)N(C)CC(=O)O)cccc2c1C(F)(F)F` [TOLRESTAT], the IC50 in experiment [3] was 0.016 µM. Further, the inhibition in vivo at 30 mg/kg in the experiment on Rattus norvegicus [4] came to 84%; with Rattus norvegicus [5], 36%.
For the compound `O=C(O)Cc1cccc(Cc2nc3c(F)c(F)cc(F)c3s2)c1`, the ED50 in the experiment with Rattus norvegicus [1] is > 10 mg/kg; in the experiment on Rattus norvegicus [2], 1.5 mg/kg.
For the compound `O=C(O)Cc1cc(F)cc(Cc2nc3c(F)c(F)cc(F)c3s2)c1`, the ED50 in the experiment with Rattus norvegicus [1] is 10 mg/kg; with Rattus norvegicus [2] it was 0.32 mg/kg. In experiment [3], this compound displayed an IC50 of 0.0088 µM.
As for `O=C(O)CN(Cc1ccccc1)C(=O)CCc1nc2c(F)c(F)cc(F)c2s1`, the inhibition in vivo at 30 mg/kg in the experiment with Rattus norvegicus [4] was determined as 75%; in the experiment with Rattus norvegicus [5], 54%.
For `O=C(O)CCCCc1nc2c(F)c(F)cc(F)c2s1`, in experiment [6], the inhibition is 35%.
As to `CN(CC(=O)O)C(=O)CCc1nc2c(F)c(F)cc(F)c2s1`, the inhibition in vivo at 30 mg/kg in the experiment with Rattus norvegicus [4] was found to be 61%; with Rattus norvegicus [5] it was 30%.
With `O=C(O)CN(C(=S)CCc1nc2c(F)c(F)cc(F)c2s1)c1ccccc1`, the inhibition in vivo at 30 mg/kg is < 64% in the experiment on Rattus norvegicus [4] and 12% with Rattus norvegicus [5].
In experiment [3], `O=C(O)Cc1ccc(Cc2nc3c(F)c(F)cc(F)c3s2)cc1` yielded an IC50 of 0.038 µM.
In experiment [6], `O=C(O)CCCc1nc2c(F)c(F)cc(F)c2s1` had an inhibition of 1%.
For the compound `O=C(O)CN(Cc1ccccc1)C(=S)CCc1nc2c(F)c(F)cc(F)c2s1`, the inhibition in vivo at 30 mg/kg in the experiment on Rattus norvegicus [4] was found to be 65%; in the experiment with Rattus norvegicus [5], 23%.

(Values after ChEMBL document CHEMBL1130466, “Benzothiazol-2-ylcarboxylic acids with diverse spacers: A novel class of potent, orally active aldose reductase inhibitors” (Bioorg Med Chem Lett, 1997).)
